Like-named read-outs stand apart in the source and are kept apart here.
Legend:
Pin1 = molecular target: T1, Pin1 (Homo sapiens, UniProt Q13526); assay: Evaluation of Pin1 enzyme inhibitory activity (Sensolyte Green Pin1 assay kit); type: biochemical
T1 construct: purchased Anaspec
Summary of the method: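 Pin1 activity was measured with a fluorogenic kit assay (Sensolyte Green) using substrate prepared at 1 μM and protein at 50 μg/ml, both pre-mix concentrations. Compound working solutions were 100, 10, 1 or 0.1 μM, and reactions ran 2 h at room temperature in the dark, read at 490/520 nm. Inhibition was graded A–D by concentration.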

[1] = test system: A2780 cells (ovarian cancer cells); assay: Cell viability of A2780 cells (Cell-titer Glo); type: cell-based; details: Homo sapiens
Procedure: (§1) In order to confirm the inhibitory effect of the compound represented by formula 1 according to the present invention on the growth of MCF7, MCF7-SP, A2780 or A2780-SP cells, the following experiment was performed, and the results are shown in Tables 4 and 5 below.
In addition, A2780 cells (ovarian cancer cells) were plated in a 96-well plate at the density of 3000 viable cells per well, and cultured in RPMI-1640 medium supplemented with 10% FBS and 1% penicillin/streptomycin.
(§2) On the next day of culture, the cells were treated with the compound of Examples 57, and 69 to 144, followed by culture for 3 days. Cell viability was evaluated by Cell-titer Glo (Promega, WC, USA), and luciferase activity was detected using a Tecan plate reader (Biocompare, USA).

[2] = test system: A2780-SP cells (ovarian cancer stem cells); assay: Sphere cell viability of A2780-SP cells (Cell-titer Glo); type: cell-based
Procedure: as §1
On the other hand, A2780-SP cells (ovarian cancer stem cells) were plated in an Ultra-Low Attachment round bottom 96-well plate (corning) at the density of 1,500 viable cells per well, and cultured in cancer stem cell medium. The cancer stem cell medium is composed of the neurobasal medium supplemented with 20 ng/ml of bFGF, 10 ng/ml of EGF, […] of amphotericin B, HEPES, Glutamax and B27.
as §2, with “for 8” for “for 3”, “days. The medium containing the compound was added thereto once again on the 4th day. Sphere cell” for “days. Cell”

[3] = Table 2, read-out: concentration at which Pin1 inhibitory activity was exhibited
[4] = concentration at which the Pin1 enzyme activity is inhibited, 2 hours at room temperature, fluorescence 490 nm/520 nm, read-out: Pin 1 inhibition
[5] = 72 h, cell viability, culture for 3 days, read-out: A2780
[6] = A2780, Table 5, read-out: A2780 cell concentration
[7] = 192 h, sphere cell viability, culture for 8 days, read-out: A2780-SP
[8] = Table 5, read-out: the concentration (second list of b710, cell line not named; matches A2780-SP column)

T1 sequence (Q13526 whole entry): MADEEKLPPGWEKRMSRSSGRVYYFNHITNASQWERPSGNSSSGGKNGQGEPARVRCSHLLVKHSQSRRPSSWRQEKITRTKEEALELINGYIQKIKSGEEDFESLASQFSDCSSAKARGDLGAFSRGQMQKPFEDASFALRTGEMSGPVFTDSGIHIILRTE

| SMILES | IC50 (Pin1; [3]) | IC50 (Pin1; [4]) | IC50 [1, 5] | IC50 [1, 6] | IC50 [2, 7] | IC50 [2, 8] |
| --- | --- | --- | --- | --- | --- | --- |
| Cc1[nH]c2ccc(Cl)cc2c1CCCNS(=O)(=O)c1ccc(OCCCN2CCNCC2)cc1 [Example 157, N-(3-(5-chloro-2-methyl-1H-indol-3-yl)propyl)-4-(3-(piperazin-1-yl)propoxy)benzenesulfonamide] |  | 1 to 10 µM | > 10 µM |  | < 1 µM | < 1 µM |
| CN1CCN(C[C@@H](O)COc2ccc(S(=O)(=O)NCCCc3c[nH]c4ccc(Cl)cc34)cc2)CC1 [Example 171, (R)—N-(3-(5-chloro-1H-indole-3-yl)propyl)-4-(2-hydroxy-3-(4-methylpiperazine-1-yl)propoxy)benzenesulfonamide] | < 1 µM | < 1 µM | > 10 µM |  | < 1 µM | < 1 µM |
| O=S(=O)(NCCCc1c[nH]c2ccc(Cl)cc12)c1ccc(OC[C@H](O)CN2CCNCC2)cc1 [Example 172, (R)—N-(3-(5-chloro-1H-indol-3-yl)propyl)-4-(2-hydroxy-3-(piperazin-1-yl)propoxy)benzenesulfonamide] | < 1 µM | < 1 µM | > 10 µM |  | < 1 µM | < 1 µM |
| CN1CCN(C[C@H](O)COc2ccc(S(=O)(=O)NCCCc3c[nH]c4ccc(Cl)cc34)cc2)CC1 [Example 173, (S)—N-(3-(5-chloro-1H-indol-3-yl)propyl)-4-(2-hydroxy-3-(4-methylpiperazin-1-yl)propoxy)benzenesulfonamide] | < 1 µM | < 1 µM | 1 to 10 µM | < 10 µM | < 1 µM | < 1 µM |
| O=S(=O)(NCCCc1c[nH]c2ccc(Cl)cc12)c1ccc(OC[C@@H](O)CN2CCNCC2)cc1 [Example 174, (S)—N-(3-(5-chloro-1H-indol-3-yl)propyl)-4-(2-hydroxy-3-(piperazin-1-yl)propoxy)benzenesulfonamide] | < 1 µM | < 1 µM | > 10 µM |  | < 1 µM | < 1 µM |
| Cc1ncn(CCCOc2ccc(S(=O)(=O)NCCCc3c[nH]c4ccc(Cl)cc34)cc2)c1C [Example 175, N-(3-(5-chloro-1H-indol-3-yl)propyl)-4-(3-(4,5-dimethyl-1H-imidazol-1-yl)propoxy)benzenesulfonamide] | < 1 µM | < 1 µM | 1 to 10 µM | < 10 µM | < 1 µM | < 1 µM |
| Cc1nc(C)n(CCCOc2ccc(S(=O)(=O)NCCCc3c[nH]c4ccc(Cl)cc34)cc2)c1C [Example 176, N-(3-(5-chloro-1H-indol-3-yl)propyl)-4-(3-(2,4,5-trimethyl-1H-imidazol-1-yl)propoxy)benzenesulfonamide] | < 1 µM | < 1 µM | 1 to 10 µM | < 10 µM | < 1 µM | < 1 µM |
| CN1CCN(CCCOc2ccc(S(=O)(=O)NCC3CCc4[nH]c5ccc(Cl)cc5c4C3)cc2)CC1 (centres unmarked) [Example 177, N-((6-chloro-2,3,4,9-tetrahydro-1H-carbazole-3-yl)methyl) 4-(3-(4-methylpiperazine-1-yl)propoxy)benzenesulfonamide] | < 1 µM | < 1 µM | 1 to 10 µM | < 10 µM | < 1 µM | < 1 µM |
| O=S(=O)(NCC1CCc2[nH]c3ccc(Cl)cc3c2C1)c1ccc(OCCCN2CCNCC2)cc1 (centres unmarked) [Example 178, N-((6-chloro-2,3,4,9-tetrahydro-1H-carbazol-3-yl)methyl)-4-(3-(piperazin-1-yl)propoxy)benzenesulfonamide] | < 1 µM | < 1 µM | 1 to 10 µM | < 10 µM | < 1 µM | < 1 µM |

Other lines, results leading:

| IC50 (Pin1; [3]) | IC50 (Pin1; [4]) | IC50 [1, 5] | IC50 [1, 6] | IC50 [2, 7] | IC50 [2, 8] | SMILES |
| --- | --- | --- | --- | --- | --- | --- |
| < 1 µM | < 1 µM | 1 to 10 µM | < 10 µM | < 1 µM | < 1 µM | CN1CCN(CCCOc2ccc(S(=O)(=O)NCCCc3c[nH]c4ccc(Br)cc34)cc2)CC1 [Example 154, N-(3-(5-bromo-1H-indol-3-yl)propyl)-4-(3-(4-methylpiperazin-1-yl)propoxy)benzenesulfonamide] |
| < 1 µM | < 1 µM | > 10 µM |  | < 1 µM | < 1 µM | CN1CCN(CCCOc2ccc(S(=O)(=O)NCCc3c[nH]c4ccc(Cl)cc34)cc2)CC1 [Example 158, N-(2-(5-chloro-1H-indol-3-yl)ethyl)-4-(3-(4-methylpiperazin-1-yl)propoxy)benzenesulfonamide] |
| < 1 µM | < 1 µM | > 10 µM |  | < 1 µM | < 1 µM | O=S(=O)(NCCc1c[nH]c2ccc(Cl)cc12)c1ccc(OCCCN2CCNCC2)cc1 [Example 159, N-(2-(5-chloro-1H-indol-3-yl)ethyl)-4-(3-(piperazin-1-yl)propoxy)benzenesulfonamide] |
| < 1 µM | < 1 µM | > 10 µM |  | > 10 µM |  | O=S(=O)(NCCCc1c[nH]c2ccc(Cl)cc12)c1ccc(OCCCn2cncn2)cc1 [Example 160, 4-(3-(1H-1,2,4-triazol-1-yl)propoxy)-N-(3-(5-chloro-1H-indol-3-yl)propyl)benzenesulfonamide] |
| < 1 µM | < 1 µM | > 10 µM |  | < 1 µM | < 1 µM | Cc1nccn1CCCOc1ccc(S(=O)(=O)NCCCc2c[nH]c3ccc(Cl)cc23)cc1 [Example 161, N-(3-(5-chloro-1H-indol-3-yl)propyl)-4-(3-(2-methyl-1H-imidazol-1-yl)propoxy)benzenesulfonamide] |
| < 1 µM | < 1 µM | 1 to 10 µM | < 10 µM | < 1 µM | < 1 µM | O=S(=O)(NCCCc1c[nH]c2c(Cl)cc(Cl)cc12)c1ccc(OCCCN2CCNCC2)cc1 [Example 164, N-(3-(5,7-dichloro-1H-indol-3-yl)propyl)-4-(3-(piperazin-1-yl)propoxy)benzenesulfonamide] |
| < 1 µM | < 1 µM | 1 to 10 µM | < 10 µM | < 1 µM | < 1 µM | CN1CCN(CCCOc2ccc(S(=O)(=O)NCCCc3c[nH]c4c(Cl)cc(Cl)cc34)cc2)CC1 [Example 165, N-(3-(5,7-dichloro-1H-indol-3-yl)propyl)-4-(3-(4-methylpiperazin-1-yl)propoxy)benzenesulfonamide] |
| < 1 µM | < 1 µM | > 10 µM |  | 1 to 10 µM |  | O=S(=O)(NCCCc1c[nH]c2ccc(Cl)cc12)c1ccc(OCCCn2cnc(Cl)c2Cl)cc1 [Example 166, N-(3-(5-chloro-1H-indol-3-yl)propyl)-4-(3-(4,5-dichloro-1H-imidazol-1-yl)propoxy)benzenesulfonamide] |
| < 1 µM | < 1 µM | 1 to 10 µM | < 10 µM | < 1 µM | < 1 µM | CN1CCN(CCCOc2ccc(S(=O)(=O)NCCCc3n[nH]c4ccc(Cl)cc34)cc2)CC1 [Example 167, N-(3-(5-chloro-1H-indazole-3-yl)propyl)-4-(3-(4-methylpiperazine-1-yl)propoxy)benzenesulfonamide] |
| < 1 µM | < 1 µM | > 10 µM |  | < 1 µM | < 1 µM | O=S(=O)(NCCCc1n[nH]c2ccc(Cl)cc12)c1ccc(OCCCN2CCNCC2)cc1 [Example 168, N-(3-(5-chloro-1H-indazol-3-yl)propyl)-4-(3-(piperazin-1-yl)propoxy)benzenesulfonamide] |
| < 1 µM | < 1 µM | 1 to 10 µM | < 10 µM | < 1 µM | < 1 µM | CN1CCN(CCCOc2ccc(S(=O)(=O)NCCCc3c[nH]c4ncc(Cl)cc34)cc2)CC1 [Example 169, N-(3-(5-chloro-1H-pyrrolo[2,3-b]pyridin-3-yl)propyl)-4-(3-(4-methylpiperazin-1-yl)propoxy)benzenesulfonamide] |
| < 1 µM | < 1 µM | 1 to 10 µM | < 10 µM | < 1 µM | < 1 µM | O=S(=O)(NCCCc1c[nH]c2ncc(Cl)cc12)c1ccc(OCCCN2CCNCC2)cc1 [Example 170, N-(3-(5-chloro-1H-pyrrolo[2,3-b]pyridin-3-yl)propyl)-4-(3-(piperazin-1-yl)propoxy)benzenesulfonamide] |
